Assay results as given in US11332459B2 (TEIJIN PHARMA LIMITED, priority 2017, dated 2022).
Structures can show the parent of a compound that is named as a salt.

Molecular target: T1, human TRPC6 (Homo sapiens, UniProt Q9Y210)
T1 construct: expressed in transfected cells
T1 sequence (Q9Y210 1-931): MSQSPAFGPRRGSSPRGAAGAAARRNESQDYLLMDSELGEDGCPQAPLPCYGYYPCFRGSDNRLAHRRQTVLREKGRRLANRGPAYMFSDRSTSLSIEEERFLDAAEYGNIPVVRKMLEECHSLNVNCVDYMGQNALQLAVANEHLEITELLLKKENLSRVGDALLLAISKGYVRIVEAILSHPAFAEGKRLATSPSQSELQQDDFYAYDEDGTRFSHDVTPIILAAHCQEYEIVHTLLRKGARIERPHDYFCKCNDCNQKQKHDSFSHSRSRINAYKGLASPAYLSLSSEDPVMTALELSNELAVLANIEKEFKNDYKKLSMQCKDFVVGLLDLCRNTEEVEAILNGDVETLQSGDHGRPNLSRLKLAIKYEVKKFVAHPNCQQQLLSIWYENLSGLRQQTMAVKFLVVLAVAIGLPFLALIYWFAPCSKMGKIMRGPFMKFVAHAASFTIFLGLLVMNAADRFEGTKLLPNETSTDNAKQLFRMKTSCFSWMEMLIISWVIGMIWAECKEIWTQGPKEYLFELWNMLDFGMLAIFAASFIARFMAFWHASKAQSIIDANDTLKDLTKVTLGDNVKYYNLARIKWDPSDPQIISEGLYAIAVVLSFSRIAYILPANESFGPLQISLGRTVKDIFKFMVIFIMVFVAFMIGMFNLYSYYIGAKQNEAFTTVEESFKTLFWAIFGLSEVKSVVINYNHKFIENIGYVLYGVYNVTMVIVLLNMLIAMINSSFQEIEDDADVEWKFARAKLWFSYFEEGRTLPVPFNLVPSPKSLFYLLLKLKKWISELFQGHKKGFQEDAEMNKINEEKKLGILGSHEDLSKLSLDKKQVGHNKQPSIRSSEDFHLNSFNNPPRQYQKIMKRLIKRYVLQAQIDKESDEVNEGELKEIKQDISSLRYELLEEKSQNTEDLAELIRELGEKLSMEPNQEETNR
Assay: TRPC6 calcium flux assay (FLIPR, OAG-stimulated calcium influx)
Assay type: cell-based
Conditions: HEK293 cells stably transfected with human TRPC6, read-out: hTRPC6 Potency
How it was run: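 HEK293 cells stably expressing human TRPC6, loaded with calcium dye 90–120 min at RT, then given compound for 25 min before OAG (50 uM final, 0.5% DMSO) in HEPES buffer pH 7.2 with 2 mM CaCl2. Background-subtracted FLIPR peak over 180 s normalized to OAG vs buffer; IC50 from dose plot.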

| IC50 [nM] | SMILES |
| --- | --- |
| 69.1 | N#Cc1ccc(Cn2c(N3CCC[C@H](N)C3)nc3ccccc32)cn1 [Example 210, (S)-5-((2-(3-aminopiperidin-1-yl)-1H-benzo[d]imidazol-1-yl)methyl)picolinonitrile] |
| 1.09 | N[C@@H]1CN(c2nc3ccccc3n2Cc2ccc(Cl)cn2)CC[C@H]1F [Example 211, (3R,4R)-1-(1-((5-chloropyridin-2-yl)methyl)-1H-benzo[d]imidazol-2-yl)-4-fluoropiperidin-3-amine hydrochloride] |
| 3.5 | N#Cc1ccc(Cn2c(N3CCC(F)(F)[C@H](N)C3)nc3ccccc32)nc1 [Example 212, (R)-6-((2-(3-amino-4,4-difluoropiperidin-1-yl)-1H-benzo[d]imidazol-1-yl)methyl)nicotinonitrile hydrochloride] |
| 593 | C[C@H](c1ccc(Cl)cn1)n1c(N2CC[C@@H](F)[C@H](N)C2)nc2ccccc21 [Example 215, (3R,4R)-1-(1-((R)-1-(5-chloropyridin-2-yl)ethyl)-1H-benzo[d]imidazol-2-yl)-4-fluoropiperidin-3-amine hydrochloride] |
| 11.4 | C[C@@H](c1ccc(Cl)cn1)n1c(N2CC[C@@H](F)[C@H](N)C2)nc2ccccc21 [Example 216, (3R,4R)-1-(1-((S)-1-(5-chloropyridin-2-yl)ethyl)-1H-benzo[d]imidazol-2-yl)-4-fluoropiperidin-3-amine hydrochloride] |
| 68.7 | C[C@H](c1ccc(Cl)cn1)n1c(N2CC[C@@H](F)[C@H](N)C2)nc2cc(F)c(F)cc21 [Example 217, (3R,4R)-1-(1-((R)-1-(5-chloropyridin-2-yl)ethyl)-5,6-difluoro-1H-benzo[d]imidazol-2-yl)-4-fluoropiperidin-3-amine hydrochloride] |
| 0.82 | C[C@@H](c1ccc(Cl)cn1)n1c(N2CC[C@@H](F)[C@H](N)C2)nc2cc(F)c(F)cc21 [Example 218, (3R,4R)-1-(1-((S)-1-(5-chloropyridin-2-yl)ethyl)-5,6-difluoro-1H-benzo[d]imidazol-2-yl)-4-fluoropiperidin-3-amine hydrochloride] |
| 15.9 | C[C@H](c1ccc(Cl)cn1)n1c(N2CC[C@@H](F)[C@H](N)C2)nc2cc(Cl)ccc21 [Example 219, (3R,4R)-1-(5-chloro-1-((R)-1-(5-chloropyridin-2-yl)ethyl)-1H-benzo[d]imidazol-2-yl)-4-fluoropiperidin-3-amine hydrochloride] |
| 0.986 | C[C@@H](c1ccc(Cl)cn1)n1c(N2CC[C@@H](F)[C@H](N)C2)nc2cc(Cl)ccc21 [Example 220, (3R,4R)-1-(5-chloro-1-((S)-1-(5-chloropyridin-2-yl)ethyl)-1H-benzo[d]imidazol-2-yl)-4-fluoropiperidin-3-amine hydrochloride] |
| 54.9 | C[C@H](c1ccc(Cl)cn1)n1c(N2CC[C@@H](F)[C@H](N)C2)nc2ccc(Cl)cc21 [Example 221, (3R,4R)-1-(6-chloro-1-((R)-1-(5-chloropyridin-2-yl)ethyl)-1H-benzo[d]imidazol-2-yl)-4-fluoropiperidin-3-amine hydrochloride] |
| 2.04 | C[C@@H](c1ccc(Cl)cn1)n1c(N2CC[C@@H](F)[C@H](N)C2)nc2ccc(Cl)cc21 [Example 222, (3R,4R)-1-(6-chloro-1-((S)-1-(5-chloropyridin-2-yl)ethyl)-1H-benzo[d]imidazol-2-yl)-4-fluoropiperidin-3-amine hydrochloride] |
| 51.5 | C[C@H](c1ccc(C#N)cn1)n1c(N2CC[C@@H](F)[C@H](N)C2)nc2ccc(C#N)cc21 [Example 223, 2-((3R,4R)-3-amino-4-fluoropiperidin-1-yl)-1-((R)-1-(5-cyanopyridin-2-yl)ethyl)-1H-benzo[d]imidazole-6-carbonitrile hydrochloride] |
| 158 | C[C@H](c1ccc(C#N)cn1)n1c(N2CC[C@@H](F)[C@H](N)C2)nc2cc(C#N)ccc21 [Example 224, 2-((3R,4R)-3-amino-4-fluoropiperidin-1-yl)-1-((R)-1-(5-cyanopyridin-2-yl)ethyl)-1H-benzo[d]imidazole-5-carbonitrile hydrochloride] |
| 2.81 | C[C@@H](c1ccc(C#N)cn1)n1c(N2CC[C@@H](F)[C@H](N)C2)nc2ccc(C#N)cc21 [Example 225, 2-((3R,4R)-3-amino-4-fluoropiperidin-1-yl)-1-((S)-1-(5-cyanopyridin-2-yl)ethyl)-1H-benzo[d]imidazole-6-carbonitrile hydrochloride] |
| 13.7 | C[C@@H](c1ccc(C#N)cn1)n1c(N2CC[C@@H](F)[C@H](N)C2)nc2cc(C#N)ccc21 [Example 226, 2-((3R,4R)-3-amino-4-fluoropiperidin-1-yl)-1-((S)-1-(5-cyanopyridin-2-yl)ethyl)-1H-benzo[d]imidazole-5-carbonitrile hydrochloride] |
| 0.328 | N[C@@H]1CN(c2nc3cc(F)c(F)cc3n2Cc2ccc(Cl)cn2)CC[C@H]1F [Example 227, (3R,4R)-1-(1-((5-chloropyridin-2-yl)methyl)-5,6-difluoro-1H-benzo[d]imidazol-2-yl)-4-fluoropiperidin-3-amine hydrochloride] |
| 0.32 | N[C@@H]1CN(c2nc3cc(F)c(F)cc3n2Cc2ccc(F)cn2)CC[C@H]1F [Example 228, (3R,4R)-1-(5,6-difluoro-1-((5-fluoropyridin-2-yl)methyl)-1H-benzo[d]imidazol-2-yl)-4-fluoropiperidin-3-amine hydrochloride] |
| 42.2 | N[C@@H]1CN(c2nc3cc(F)cc(F)c3n2Cc2ccc(Cl)cn2)CCC1(F)F [Example 229, (R)-1-(1-((5-chloropyridin-2-yl)methyl)-5,7-difluoro-1H-benzo[d]imidazol-2-yl)-4,4-difluoropiperidin-3-amine hydrochloride] |
| 0.49 | N[C@@H]1CN(c2nc3c(F)cc(F)cc3n2Cc2ccc(Cl)cn2)CCC1(F)F [Example 230, (R)-1-(1-((5-chloropyridin-2-yl)methyl)-4,6-difluoro-1H-benzo[d]imidazol-2-yl)-4,4-difluoropiperidin-3-amine hydrochloride] |
| 737 | N#Cc1ccc2c(c1)CC[C@H]2n1c(N2CC[C@@H](F)[C@H](N)C2)nc2ccccc21 [Example 231, (R)-1-(2-((3R,4R)-3-amino-4-fluoropiperidin-1-yl)-1H-benzo[d]imidazol-1-yl)-2,3-dihydro-1H-indene-5-carbonitrile hydrochloride] |
| 2.16 | N#Cc1ccc2c(c1)CC[C@@H]2n1c(N2CC[C@@H](F)[C@H](N)C2)nc2ccccc21 [Example 232, (S)-1-(2-((3R,4R)-3-amino-4-fluoropiperidin-1-yl)-1H-benzo[d]imidazol-1-yl)-2,3-dihydro-1H-indene-5-carbonitrile hydrochloride] |
| 1.47 | N#Cc1cnc(Cn2c(N3CCC(F)(F)[C@H](N)C3)nc3ccc(Cl)cc32)cn1 [Example 233, (R)-5-((2-(3-amino-4,4-difluoropiperidin-1-yl)-6-chloro-1H-benzo[d]imidazol-1-yl)methyl)pyrazine-2-carbonitrile] |
| 26.9 | N#Cc1cnc(Cn2c(N3CCC(F)(F)[C@H](N)C3)nc3cc(Cl)ccc32)cn1 [Example 234, (R)-5-((2-(3-amino-4,4-difluoropiperidin-1-yl)-5-chloro-1H-benzo[d]imidazol-1-yl)methyl)pyrazine-2-carbonitrile] |
